Patent US6537803B1, “Amino acid transporters and uses” (Oregon Health Sciences University, priority 1993, dated 2003)
Like-named read-outs stand apart in the source and are kept apart here. Residues, ends and D or L forms follow the SMILES beside them.

Legend:
Type in all cases: cell-based
[1] = molecular target: T1, human ASCT1 neutral amino acid transporter (Homo sapiens, UniProt P43007); assay: amino acid-induced inward current in voltage-clamped ASCT1-injected Xenopus oocytes
T1 construct: expressed in transfected cells; host or cells: Xenopus laevis oocytes injected with in vitro transcribed RNA (pOTV vector)
T1 sequence (P43007 1-532): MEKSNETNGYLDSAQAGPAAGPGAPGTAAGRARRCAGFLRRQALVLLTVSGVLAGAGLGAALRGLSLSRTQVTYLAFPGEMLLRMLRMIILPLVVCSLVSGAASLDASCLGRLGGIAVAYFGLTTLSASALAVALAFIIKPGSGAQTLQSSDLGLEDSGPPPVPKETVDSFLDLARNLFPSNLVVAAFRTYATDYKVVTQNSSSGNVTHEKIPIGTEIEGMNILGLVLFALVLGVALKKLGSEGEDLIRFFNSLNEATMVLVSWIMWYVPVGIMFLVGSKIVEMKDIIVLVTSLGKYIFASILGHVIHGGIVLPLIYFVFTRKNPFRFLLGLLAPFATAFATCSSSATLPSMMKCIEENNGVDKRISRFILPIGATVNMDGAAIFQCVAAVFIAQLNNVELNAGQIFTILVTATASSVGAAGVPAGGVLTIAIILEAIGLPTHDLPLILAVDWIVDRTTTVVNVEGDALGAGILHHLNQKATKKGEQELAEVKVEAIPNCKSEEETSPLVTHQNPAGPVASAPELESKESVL
Description: (§1) Following the PCR, the product of the amplification reaction was purified using standard techniques (Saiki et al., 1988, Science 239: 487-491). The DNA then digested with the restriction enzymes KpnI and XbaI and then cloned into the polylinker of an oocyte transcription vector (POTV; see Wang el al., 1991, Nature 352: 729-731) that had been digested with KpnI and XbaI. Synthetic RNA was then transcribed in vitro from this clone using the method of Kavanaugh et al. (1992, J. Biol. Chem. 267: 22007-22009) employing bacteriophage T7 RNA polymerase (New England Biolabs, Beverly, Mass.). 20-50 nL of ASCT1 RNA (at a concentration of about 400 μg/mL) was injected into defolliculated stage V-VI Xenopus oocytes excised from female Xenopus laevis anesthetized by immersion in 3-aminobenzoic acid for 60 min. Excised oocytes were treated with collagenase II (Sigma Chemical Co., St. Louis, Mo.) in calcium-free Barth's saline solution [comprising 88 mM NaCl, 1 mM KCl, 2.4 mM NaHCO3, 0.82 mM MgSO4, 7.5 mM Tris-HCl (pH 7.6), 50 U/mL Nystatin (Sigma) and 0.1 mg/mL gentamycin (Sigma)] for 60 min., and then incubated overnight at 15° C. in 50% Leibowitz's L-15 media (Grand Island Biological Co. (GIBCO), Long Island, N.Y.). After overnight incubation the oocytes were mechanically defolliculated and then were injected with ASCT-1 RNA and incubated at 19° C. for 48 h (see Kim el al., 1991, Nature 352: 725-728 for further details of Xenopus oocyte preparation and microinjection).
(§2) Amino acid transport in such oocytes was assayed using [^3H] alanine, [^3H] serine or [^35S] cysteine (obtained from New England Nuclear, Boston, Mass.). Briefly, microinjected oocytes were […] at −60 mV using a Dagan TEV-200 clamp amplifier with an Axon Instruments (Foster City, Calif.) TL-1 A/D interface controlled by pCLAMP software (Axon Instruments) (see Kavanaugh et al., 1992, J. Biol. Chem. 267: 22007-22009 for a detailed review of this methodology) and continuously superfused with ND-96 buffer (consisting of 96 mM NaCl/2 mM KCl/1.8 mM CaCl2/1 mM MgCl2/5 mM HEPES, pH 7.5). For transport measurements, this solution was changed to a solution containing varying concentrations of the radiolabeled amino acids in ND-96 buffer.
More detailed analyses of ithe kinetics of amino acid influx were performed by least squares linear regression analysis of induced inward current ([I]) plotted as a function of substrate amino acid concentration ([S]), using the equation shown in the legend of Table II.

human EAAT1 = molecular target: T2, human EAAT1 (Homo sapiens, UniProt P43003); assay: inhibition of [3H]-L-glutamate uptake in COS-7 cells expressing EAAT1; conditions: for inhibition of glutamate uptake (in words), EAAT1: COS cell culture
T2 construct: expressed in transfected cells; host or cells: COS-7 cells, pCMV5 construct, DEAE-dextran transient transfection
T2 sequence (P43003 whole entry): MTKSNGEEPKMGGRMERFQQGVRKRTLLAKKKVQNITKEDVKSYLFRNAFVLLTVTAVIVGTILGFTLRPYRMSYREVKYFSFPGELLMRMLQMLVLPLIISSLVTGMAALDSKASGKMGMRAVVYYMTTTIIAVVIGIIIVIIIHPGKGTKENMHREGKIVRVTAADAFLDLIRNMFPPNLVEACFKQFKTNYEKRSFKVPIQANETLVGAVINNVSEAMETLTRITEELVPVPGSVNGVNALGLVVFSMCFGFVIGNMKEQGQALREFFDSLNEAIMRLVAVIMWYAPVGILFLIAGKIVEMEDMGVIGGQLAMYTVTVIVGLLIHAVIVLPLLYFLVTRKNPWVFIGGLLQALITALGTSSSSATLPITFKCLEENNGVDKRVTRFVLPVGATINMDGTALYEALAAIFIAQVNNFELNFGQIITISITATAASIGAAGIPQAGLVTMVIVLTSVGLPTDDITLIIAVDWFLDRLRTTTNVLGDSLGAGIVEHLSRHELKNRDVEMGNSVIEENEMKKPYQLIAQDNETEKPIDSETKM
Description: (§3) DNA fragments comprising the coding sequences of the novel glutamate transporter genes of the invention were excised from the POTV constructs described in Example 3 and subcloned into the mammalian expression plasmid pCMV5 (Anderson et al., 1989, J. Biol. Chem. 264: 8222-8229). These mammalian expression constructs were used for transient expression assays of glutamate transporter protein function after transfection of each of these constructs into COS-7 cells (Gluzman, 1981, Cell 23: 175-182).
(§4) Each of the pCMV5 constructs corresponding to EAAT1, EAAT2 and EAAT3 were introduced into COS-7 cells by DEAE-dextran facilitated transfection (see Sambrook et al., ibid.). Two day following transfection, the transfected cells were washed three times in phosphate-buffered saline (PBS) and then incubated with a mixture of radiolabeled amino acid ([^3H]-L-glutamate or [^3H]-D-aspartate; Dupont-NEN) and non-radiolabeled amino acid for 10 min. After incubation, the cells were washed three times with ice-cold PBS, solubilized with a solution of 0.1% sodium dodecyl sulfate (SDS) and the amount of radioactivity associated with the cells determined using standard liquid scintillation counting methods.
(§5) COS-7 cell cultures transformed with pCMVS-human glutamate transporter constructs as described in Example 4 were used to characterize the pharmacological properties of each of these transporter proteins relative to a variety of known glutamate transporter inhibitors. These assays were performed essentially as described in Example 4, with the exception that varying amounts of each of a number of known inhibitor compounds were included in the incubations.
(§6) In these experiments, uptake of 1 μM of […] was determined in the presence of the indicated amounts of each of the inhibitors.

human EAAT2 = molecular target: T3, human EAAT2 (Homo sapiens, UniProt P43004); assay: inhibition of [3H]-L-glutamate uptake in COS-7 cells expressing EAAT2; conditions: for inhibition of glutamate uptake (in words), EAAT2: COS cell culture
T3 construct: expressed in transfected cells; host or cells: COS-7 cells, pCMV5 construct, DEAE-dextran transient transfection
T3 sequence (P43004 whole entry): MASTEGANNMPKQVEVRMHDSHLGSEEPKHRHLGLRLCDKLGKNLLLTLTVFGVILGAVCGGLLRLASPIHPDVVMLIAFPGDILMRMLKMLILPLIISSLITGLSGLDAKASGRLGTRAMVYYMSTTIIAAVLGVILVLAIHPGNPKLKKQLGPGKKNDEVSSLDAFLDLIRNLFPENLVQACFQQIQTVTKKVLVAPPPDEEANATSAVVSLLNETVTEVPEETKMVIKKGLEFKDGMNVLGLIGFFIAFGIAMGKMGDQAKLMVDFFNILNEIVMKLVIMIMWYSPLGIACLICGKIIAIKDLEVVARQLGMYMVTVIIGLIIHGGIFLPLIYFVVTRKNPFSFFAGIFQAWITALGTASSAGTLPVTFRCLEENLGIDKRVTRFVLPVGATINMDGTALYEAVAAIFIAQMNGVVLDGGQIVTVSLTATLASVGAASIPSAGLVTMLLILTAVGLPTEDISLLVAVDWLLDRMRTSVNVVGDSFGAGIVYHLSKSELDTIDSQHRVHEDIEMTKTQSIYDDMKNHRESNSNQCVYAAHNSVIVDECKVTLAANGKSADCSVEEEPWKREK
Description: as §3, §4, §5, §6

human EAAT3 = molecular target: T4, human EAAT3 (Homo sapiens, UniProt P43005); assay: inhibition of [3H]-L-glutamate uptake in COS-7 cells expressing EAAT3; conditions: for inhibition of glutamate uptake (in words), EAAT3: COS cell culture
T4 construct: isolation of Clone GT11B containing a full-length open reading frame encoding EAAT3; expressed in transfected cells; host or cells: COS-7 cells, pCMV5 construct, DEAE-dextran transient transfection
T4 sequence (P43005 1-524): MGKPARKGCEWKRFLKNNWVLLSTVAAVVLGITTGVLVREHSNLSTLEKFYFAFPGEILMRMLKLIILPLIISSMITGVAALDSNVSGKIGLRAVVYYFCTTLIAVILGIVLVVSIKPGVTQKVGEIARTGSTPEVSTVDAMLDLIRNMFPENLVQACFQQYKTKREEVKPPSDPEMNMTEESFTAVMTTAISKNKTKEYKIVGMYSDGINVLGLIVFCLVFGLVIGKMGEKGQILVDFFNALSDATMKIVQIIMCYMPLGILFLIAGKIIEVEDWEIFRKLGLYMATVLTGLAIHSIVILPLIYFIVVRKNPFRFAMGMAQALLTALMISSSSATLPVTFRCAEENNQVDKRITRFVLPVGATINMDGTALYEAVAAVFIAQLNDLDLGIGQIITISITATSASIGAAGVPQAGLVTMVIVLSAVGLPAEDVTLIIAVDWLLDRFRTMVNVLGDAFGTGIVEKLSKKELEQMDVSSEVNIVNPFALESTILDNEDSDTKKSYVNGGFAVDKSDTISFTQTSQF
Description: as §3, §4, §5, §6

[2] = molecular target: T1, human ASCT1 neutral amino acid transporter; assay: radiolabeled amino acid uptake in ASCT1 RNA-injected Xenopus oocytes; conditions: competitor 10 mM; [3H] alanine 100 μM
Description: as §1, §2

[3] = uptake of 1 μM [3H]-L-glutamate, [S] << Km, Ki does not differ significantly from measured IC50, read-out: Ki, glutamate uptake inhibition constant, EAAT2
[4] = read-out: Ki, glutamate uptake inhibition constant, EAAT1
[5] = read-out: Ki, glutamate uptake inhibition constant, EAAT2
[6] = read-out: Ki, glutamate uptake inhibition constant, EAAT3
[7] = much higher concentrations (about 1 mM)

C[C@@H](N)C(=O)O [D-alanine]
response relative to the response produced by L-alanine ([1]; stereospecificity): 12±3%

CC(C)[C@H]1CN[C@H](C(=O)O)[C@H]1CC(=O)O [DHK, dihydrokainate]
Ki (human EAAT1): > 1 mM | Ki (human EAAT2): 23 ± 6 µM | Ki (human EAAT3): > 1 mM

C=C(C)[C@H]1CN[C@H](C(=O)O)[C@H]1CC(=O)O [KAI, kainate]
Ki (human EAAT1; uptake of 1 μM [3H]-L-glutamate, bound given in mM, read-out: Ki, glutamate uptake inhibition constant, EAAT1): > 1 mM | Ki (human EAAT2; [3]): 59 ± 18 µM | Ki (human EAAT3; uptake of 1 μM [3H]-L-glutamate, bound given in mM, read-out: Ki, glutamate uptake inhibition constant, EAAT3): > 1 mM

N[C@@H](CC(=O)NO)C(=O)O [L-aspartate-β-hydroxymate]
Ki (human EAAT1; [4]): 0.369 ± 0.07 mM | Ki (human EAAT2; [5]): 184 ± 27 µM | Ki (human EAAT3; [6]): 0.133 ± 0.034 mM

N[C@@H](CS(=O)(=O)O)C(=O)O [L-cysteate]
Ki (human EAAT1; uptake of 1 μM [3H]-L-glutamate, [S] << Km, Ki does not differ significantly from measured IC50, read-out: Ki, glutamate uptake inhibition constant, EAAT1): 0.01 ± 0.003 mM | Ki (human EAAT2; [3]): 10 ± 2 µM | Ki (human EAAT3; uptake of 1 μM [3H]-L-glutamate, [S] << Km, Ki does not differ significantly from measured IC50, read-out: Ki, glutamate uptake inhibition constant, EAAT3): 0.019 ± 0.009 mM

N[C@@H](CS(=O)O)C(=O)O [L-cysteine sulfinic acid]
Ki (human EAAT1; [4]): 0.014 ± 0.007 mM | Ki (human EAAT2; [5]): 6 ± 1 µM | Ki (human EAAT3; [6]): 0.017 ± 0.002 mM

NC(=O)CC[C@H](N)C(=O)O [L-glutamine]
effect on membrane current of ASCT1-injected oocytes [1, 7]: had no effect

NCCCC[C@H](N)C(=O)O [L-lysine]
effect on membrane current of ASCT1-injected oocytes [1, 7]: had no effect

O=C1CC[C@@H](C(=O)O)N1 [L-pyroglutamicacid]
inhibition of glutamate uptake (in words), EAAT1 (human EAAT1): ineffective | inhibition of glutamate uptake (in words), EAAT2 (human EAAT2): ineffective | inhibition of glutamate uptake (in words), EAAT3 (human EAAT3): ineffective

CNC(C)(C)C(=O)O [MAIB, 2-methylaminoisobutyric acid]
effect on the rate of uptake of [3H] alanine (competition) [2]: had no effect | effect on membrane current of ASCT1-injected oocytes ([1]; 1 mM): had no effect

CC(=O)N[C@@H](CC(=O)O)C(=O)N[C@@H](CCC(=O)O)C(=O)O [N-acetyl aspartylglutamate] (Ac-Asp-Glu-OH)
inhibition of glutamate uptake (in words), EAAT1 (human EAAT1): ineffective | inhibition of glutamate uptake (in words), EAAT2 (human EAAT2): ineffective | inhibition of glutamate uptake (in words), EAAT3 (human EAAT3): ineffective

CN[C@H](CC(=O)O)C(=O)O [N-methyl-D-aspartate]
inhibition of glutamate uptake (in words), EAAT1 (human EAAT1): ineffective | inhibition of glutamate uptake (in words), EAAT2 (human EAAT2): ineffective | inhibition of glutamate uptake (in words), EAAT3 (human EAAT3): ineffective

CN[C@@H](C)C(=O)O [N-methylalanine]
effect on membrane current of ASCT1-injected oocytes [1, 7]: had no effect

O=C(O)[C@H]1CN[C@H](C(=O)O)C1 [PDC, L-trans-pyrrolidine-2,4-dicarboxylate]
Ki (human EAAT1; [4]): 0.079 ± 0.007 mM | Ki (human EAAT2; [5]): 8 ± 2 µM | Ki (human EAAT3; [6]): 0.061 ± 0.014 mM
